“And” between values parts separate entries of the source, which are not always exact repeats. Equal entries are not always repeated.
Experiments:
[1] = system: VEGF-induced angiogenesis on the CAM; test: Gelatin sponge chick chorioallantoic membrane (CAM) assay
[2] = system: VEGF-A–induced sprouting of HUVECs; test: HUVEC spheroid sprouting assay; assay type: cell-based, human; conditions: for cumulative sprout length per spheroid (CSL), mean: 25 ng/mL VEGF-165, 24 hours
Method: The three TKI compounds were tested by Reaction Biology Europe (Freiburg, Germany) in the spheroid-based cellular angiogenesis assay to determine their effect on VEGF-A–induced sprouting of HUVECs. Primary HUVECs from pooled donors at passage 3 to 4 (PromoCell, Heidelberg, Germany) were grown in endothelial cell growth and basal medium (ECGM/ECBM, PromoCell). Test compounds were prepared as 100-fold concentrated stock solutions in DMSO and pre-diluted in basal medium. HUVECs were stimulated using 25 ng/mL VEGF-165 (Reaction Biology Europe, Freiburg, Germany) pre-diluted in basal medium.
Spheroids were prepared as described by pipetting 400 HUVECs in a hanging drop on plastic dishes to allow overnight spheroid aggregation. Fifty HUVEC spheroids were seeded in 0.9 mL of a collagen gel and pipetted into individual wells of a 24-well plate to allow polymerization. Test compounds and VEGF-165 were added after 30 minutes by pipetting 100 μL of a ten-fold concentrated solution onto the polymerized gel. Plates were incubated at 37°C for 24 hours, and cells were fixed by adding 4% paraformaldehyde (Roth, Karlsruhe, Germany). Sprouting intensity of HUVEC spheroids treated with the test samples was quantitated using an image analysis system to determine the cumulative sprout length (CSL) per spheroid. Images of single spheroids were captured using an inverted microscope and the digital imaging software NIS-Elements BR 3.0 (Nikon). Spheroid pictures were uploaded to Wimasis (www.wimasis.com) for image analysis. The CSL of each spheroid was determined using the imaging analysis tool WimSprout. The mean CSL of ten randomly selected spheroids was analyzed as an individual data point.

## Cc1[nH]c(/C=C2\C(=O)Nc3ccc(F)cc32)c(C)c1C(=O)N[C@H]1CCN(C(=O)N(C)C)C1 [Vorolanib]
[1]; TKI at 200 x VEGFR2 IC50
  Angiogenesis - Vessel number, Mean: 8.7
[1]; TKI at 200 x VEGFR2 IC50, one value per egg
  Angiogenesis - Vessel number, individual egg: 1.33 and 10.33 and 14 and 8.33 and 9.33 and 9
[1]; TKI at 200× VEGFR2 IC50 dose
  reduction of the number of blood vessels perfusing the sponges vs negative control: 37.1%
[1]; TKI at VEGFR2 IC50 dose
  reduction of the number of blood vessels perfusing the sponges vs negative control: 39.9%
[1]; TKI at VEGFR2 IC50 dose, score 0-3
  Angiogenesis - Vessel thickness score, Mean: 1.2
[1]; TKI at VEGFR2 IC50 dose, score 0-3, one value per egg
  Angiogenesis - Vessel thickness score, individual egg: 0 and 1.67 and 1.33 and 1 and 0.67 and 2.33
[2]; 1.00E-05 M TKI
  cumulative sprout length per spheroid (CSL), mean: 144
[2]; 1.00E-06 M TKI
  cumulative sprout length per spheroid (CSL), mean: 242
[2]; 1.00E-07 M TKI
  cumulative sprout length per spheroid (CSL), mean: 455
[2]; 3.00E-06 M TKI
  cumulative sprout length per spheroid (CSL), mean: 269
[2]; 3.00E-07 M TKI
  cumulative sprout length per spheroid (CSL), mean: 241
[2]; 3.00E-08 M TKI
  cumulative sprout length per spheroid (CSL), mean: 992
[2]; highest test concentration of 1×10^–5M
  vessel sprouting (representative spheroid images): zero vessel sprouting

Reference: PMC11149885 (PLOS ONE, 2024)
